From PMC3673949, “Small Molecule R1498 as a Well-Tolerated and Orally Active Kinase Inhibitor for Hepatocellular Carcinoma and Gastric Cancer Treatment via Targeting Angiogenesis and Mitosis Pathways” (PLoS ONE, 2013)
Read-outs that look alike come from different tables or passages of the source.

What was measured:
[1] = system: colorectal cancer, breast cancer, melanoma, and leukemia xenografts; details: 150∼225 mg/kg once daily per oral; cited from earlier work
Ret = details: cited from earlier work
KIT = details: cited from earlier work
CNE-2 xenograft = details: CNE-2, 100 mg/kg, every 10 days, intraperitoneal injection; for Final TGI%: day of study termination
From the text: The use and care of experimental animal was approved by Institutional Animal Care and Use Committee, Roche R&D Center (China). Tumor cells were inoculated into the right flank of BALB/C nu/nu female nude mice (5∼6 weeks, 16∼18 g, obtained from Sino-British SIPPR/BK Lab. Animal Ltd, Shanghai, China) at optimal density based on our in-house validation study. After the tumor was established and reached 100∼150 mm^3, the mice were randomized into ten mice per group and received treatment according to the schedule. The tumor growth was recorded three times a week with the measurement of length (L) and width (W) by caliper, and calculated as tumor volume (TV, mm^3) = 0.5*L*W*W (mm). […] The tumor regression of individual mouse was defined - the tumor volume at the end was less than the tumor volume when treatment was initiated.

[2] = system: advanced and metastatic HCC; details: first line therapy; placebo group 7.9 months; cited from earlier work
Raf-1 = details: cited from earlier work
BGC-823 xenograft = assay: Xenograft efficacy study; format: in vivo, BALB/C nu/nu nude mice; details: BGC-823, 25 mg/kg twice a day per oral gavage
MGC-803 xenograft = assay: Xenograft efficacy study; format: in vivo, BALB/C nu/nu nude mice; details: MGC-803, 25 mg/kg twice a day per oral gavage
BEL-7404 xenograft = assay: Xenograft efficacy study; format: in vivo, BALB/C nu/nu nude mice; details: BEL-7404, 12.5 mg/kg twice a day per oral gavage
SGC-7901 xenograft = assay: Xenograft efficacy study; format: in vivo, BALB/C nu/nu nude mice
BEL-7402 xenograft = assay: Xenograft efficacy study; format: in vivo, BALB/C nu/nu nude mice
HCCLM3 xenograft = assay: Xenograft efficacy study; format: in vivo, BALB/C nu/nu nude mice; details: HCCLM3, 12.5 mg/kg twice a day per oral gavage
HGC-27 xenograft = assay: Xenograft efficacy study; format: in vivo, BALB/C nu/nu nude mice; details: HGC-27, 25 mg/kg twice a day per oral gavage
[3] = day of study termination (Table S2)

In the case of `Cc1cc(Nc2cc(N3CCN(C)CC3)nc(/C=C/c3ccccc3)n2)n[nH]1` [ENMD-2076], the TGI% [1] is given as ~90%.
In the case of `CNC(=O)c1cc(Oc2ccc(NC(=O)Nc3ccc(Cl)c(C(F)(F)F)c3)c(F)c2)ccn1` [regorafenib], the IC50 (Ret) is given as 1.5 nM and the IC50 (KIT) is given as 7 nM.
For `O=P1(N(CCCl)CCCl)NCCCO1` (centres unmarked) [Cyclophosphamide, cyclophosphamide], the “Final TGI%” value (CNE-2 xenograft) was 58%, the “Final TGI%” value (CNE-2 xenograft; listed as cyclophosphamide) was 60% and the Body weight changes% (CNE-2 xenograft; before vs after treatment) was -2.1%. The “Tumor Regression” value (CNE-2 xenograft; mice with regression/group) was 0/10.
In the case of `CNC(=O)c1cc(Oc2ccc(NC(=O)Nc3ccc(Cl)c(C(F)(F)F)c3)cc2)ccn1` [Sorafenib, sorafenib, reference compound], the median survival time [2] is listed as 10.7 months, the IC50 (Raf-1) is listed as […] and the “Final TGI%” value (BGC-823 xenograft; [3]) is listed as 82%. For the same compound, the Body weight changes% (BGC-823 xenograft; before vs after treatment) was -3.5%, the “Tumor Regression” value (BGC-823 xenograft; mice with regression/group) was 0/10 and the “Final TGI%” value (MGC-803 xenograft; day of study termination) was 92%. The Body weight changes% (MGC-803 xenograft; before vs after treatment) was -2.4%, the “Tumor Regression” value (MGC-803 xenograft; mice with regression/group) was 2/10 and the “Final TGI%” value (BEL-7404 xenograft; [3]) was 75%. The Body weight changes% (BEL-7404 xenograft; before vs after treatment) was -4.2%, the “Tumor Regression” value (BEL-7404 xenograft; mice with regression/group) was 0/10 and the “Final TGI%” value (SGC-7901 xenograft; SGC-7901, 25 mg/kg twice a day per oral gavage, day of study termination (Table S2)) was 95%. The Body weight changes% (SGC-7901 xenograft; SGC-7901, 25 mg/kg twice a day per oral gavage, before vs after treatment) was -18%, the “Tumor Regression” value (SGC-7901 xenograft; SGC-7901, 25 mg/kg twice a day per oral gavage, mice with regression/group) was 2/10 and the “percentage of body weight loss” value (SGC-7901 xenograft; SGC-7901 model, 25 mg/kg twice daily per oral, termination day) was “exceeded 15%”. For the same compound, the “Final TGI%” value (BEL-7402 xenograft; BEL-7402, 25 mg/kg twice a day per oral gavage, day of study termination) was 83%, the Body weight changes% (BEL-7402 xenograft; BEL-7402, 25 mg/kg twice a day per oral gavage, before vs after treatment) was -16% and the “Tumor Regression” value (BEL-7402 xenograft; BEL-7402, 25 mg/kg twice a day per oral gavage, mice with regression/group) was 1/10. The “percentage of body weight loss” value (BEL-7402 xenograft; BEL-7402 model, 25 mg/kg twice daily per oral, termination day) was “exceeded 15%”, the “Final TGI%” value (HCCLM3 xenograft; day of study termination) was 71% and the Body weight changes% (HCCLM3 xenograft; before vs after treatment) was 4.4%. The “Tumor Regression” value (HCCLM3 xenograft; mice with regression/group) was 0/10, the “Final TGI%” value (HGC-27 xenograft; day of study termination) was 83% and the Body weight changes% (HGC-27 xenograft; before vs after treatment) was -5.5%. For the same compound, the “Tumor Regression” value (HGC-27 xenograft; mice with regression/group) was 0/10.
